Measurements reported in paper PMC3325286, “Structural and Functional Diversity of Acidic Scorpion Potassium Channel Toxins” (PLoS ONE, 2012).
Where two headings read alike, the source gives them in different places. Positions of bridges follow the written chain, without caps; N, C: chain ends. Residues, ends and D or L forms follow the SMILES beside them. No end group written: not given here.

Key:
KCNQ1 channel [1] = target: T1, KCNQ1 channel (Homo sapiens, UniProt P15382+P51787); test: cell-based; settings: for inhibition at 10 µM: HEK293, read-out: Inhibition of KCNQ1 channel current; for inhibition at 1 µM: HEK293, read-out: Inhibition of KCNQ1 channel current, ImKTx104 and mutants
T1 sequence (P51787 whole entry, looked up): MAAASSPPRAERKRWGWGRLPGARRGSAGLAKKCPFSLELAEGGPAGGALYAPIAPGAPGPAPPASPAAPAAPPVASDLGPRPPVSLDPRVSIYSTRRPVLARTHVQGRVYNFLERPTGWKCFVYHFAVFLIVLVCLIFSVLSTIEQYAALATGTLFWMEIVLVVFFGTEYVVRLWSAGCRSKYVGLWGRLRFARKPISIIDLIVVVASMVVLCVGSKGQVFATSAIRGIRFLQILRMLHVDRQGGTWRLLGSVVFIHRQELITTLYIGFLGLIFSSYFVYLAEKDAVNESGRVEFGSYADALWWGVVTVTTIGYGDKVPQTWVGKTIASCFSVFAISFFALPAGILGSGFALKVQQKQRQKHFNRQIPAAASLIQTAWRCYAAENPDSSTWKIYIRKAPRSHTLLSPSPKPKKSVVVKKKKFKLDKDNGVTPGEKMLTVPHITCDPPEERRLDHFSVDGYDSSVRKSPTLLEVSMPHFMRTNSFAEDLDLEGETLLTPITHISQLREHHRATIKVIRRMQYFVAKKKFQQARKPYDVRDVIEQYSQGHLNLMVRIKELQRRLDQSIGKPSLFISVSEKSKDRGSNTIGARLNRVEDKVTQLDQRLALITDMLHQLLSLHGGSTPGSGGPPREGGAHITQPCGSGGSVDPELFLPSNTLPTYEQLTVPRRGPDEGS

Kv1.3 channel = test: Patch-clamp inhibition of Kv1.3 channel current in transfected HEK293 cells; format: cell-based
KCNQ1 channel [2] = target: T1, KCNQ1 channel
BKCa channel = test: Patch-clamp inhibition of BKCa channel current in transfected HEK293 cells; format: cell-based; settings: 1 µM concentration; n>3
TRPV1 channel = test: Patch-clamp inhibition of TRPV1 channel current in transfected HEK293 cells; format: cell-based; settings: 1 µM concentration; n>3
SKCa channel = test: Patch-clamp inhibition of SKCa channel current in transfected HEK293 cells; format: cell-based; settings: 1 µM concentration; n>3
Kv1.2 channel = test: Patch-clamp inhibition of Kv1.2 channel current in transfected HEK293 cells; format: cell-based; settings: 1 µM ImKTx104 (Fig. S2); n>3
Kv1.1 channel = test: Patch-clamp inhibition of Kv1.1 channel current in transfected HEK293 cells; format: cell-based; settings: 1 µM ImKTx104 (Fig. S2); n>3
Kv1.x channel = settings: cited from earlier work

Compound	inhibition at 10 µM (KCNQ1 channel [1])	Effect on Kv1.3 channel (in words) (Kv1.3 channel)	Effect on KCNQ1 channel (in words) (KCNQ1 channel [2]; 10 µM concentration)	inhibition at 1 µM (KCNQ1 channel [1])	also measured
CC[C@H](C)[C@@H]1NC(=O)[C@@H](NC(=O)[C@H](C)NC(=O)[C@H](CC(N)=O)NC(=O)CN)CSSC[C@@H](C(=O)N[C@@H](CC(=O)O)C(=O)N[C@@H](CCCCN)C(=O)O)NC(=O)[C@@H]2CCCN2C(=O)[C@H](CCCCN)NC(=O)[C@H](CC(=O)O)NC(=O)[C@@H]2CSSC[C@H](NC(=O)[C@H](C(C)C)NC(=O)[C@H](CCC(=O)O)NC1=O)C(=O)N[C@@H](CC(C)C)C(=O)N[C@@H](CCC(N)=O)C(=O)N[C@@H](Cc1c[nH]cn1)C(=O)N[C@@H]([C@@H](C)O)C(=O)NCC(=O)N[C@@H](CC(N)=O)C(=O)N1CCC[C@H]1C(=O)N[C@@H](C)C(=O)N[C@@H](CCC(=O)O)C(=O)N2 [HeTx204] (H-GNACIEVCLQHTGNPAECDKPCDK-OH; disulfide 4-22, 8-18)	44.9%	effectively blocked	effectively blocked		Washout of toxin from KCNQ1 channel (in words) (KCNQ1 channel [2]; 10 µM): could not be removed; Effect on BKCa channel (in words) (BKCa channel): negligible effects; Effect on TRPV1 channel (in words) (TRPV1 channel): negligible effects; Effect on SKCa channel (in words) (SKCa channel): negligible effects
EDKLKCTKTDDCAKYCSQFTDVHPACLGGYCECLRWEGGISS (disulfide 6-26, 12-31, 16-33) [StKTx23]	4.21%	effectively blocked	did not inhibit		
CC[C@H](C)[C@@H]1NC(=O)[C@H]([C@@H](C)O)NC(=O)[C@H](CC(=O)O)NC(=O)[C@H](Cc2ccc(O)cc2)NC(=O)[C@@H]2CSSC[C@@H](C(=O)N[C@@H](CCSC)C(=O)O)NC(=O)[C@H](CCCCN)NC(=O)[C@@H]3CSSC[C@H](NC(=O)[C@H](CC(=O)O)NC(=O)[C@H](CCC(=O)O)NC(=O)[C@H](Cc4c[nH]cn4)NC(=O)[C@H]([C@@H](C)O)NC(=O)[C@H](C(C)C)NC(=O)[C@@H](NC(=O)[C@H](C)N)CSSC[C@H](NC(=O)[C@H]([C@@H](C)O)NC(=O)CNC1=O)C(=O)N[C@@H](C(C)C)C(=O)N[C@@H](CC(=O)O)C(=O)NCC(=O)N[C@@H](CCCCN)C(=O)N3)C(=O)N[C@@H]([C@@H](C)O)C(=O)N[C@@H](CC(C)C)C(=O)N[C@@H](CC(C)C)C(=O)N2 [ImKTx104] (H-ACVTHEDCTLLCYDTIGTCVDGKCKCM-OH; disulfide 2-19, 8-24, 12-26)	41.7%	minor effect	effectively blocked	27.5%	Effect on Kv1.2 channel (in words) (Kv1.2 channel): no effect; τoff (time constant of washing off process), KCNQ1 channel current (KCNQ1 channel [2]; measured at 10 µM): 11.73 s; τon (time constant of binding process), KCNQ1 channel current (KCNQ1 channel [2]; measured at 10 µM): 81.32 s; Effect on Kv1.1 channel (in words) (Kv1.1 channel): no effect; Effect on BKCa channel (in words) (BKCa channel): negligible effects; Effect on TRPV1 channel (in words) (TRPV1 channel): negligible effects; Effect on SKCa channel (in words) (SKCa channel): negligible effects
CC[C@H](C)[C@@H]1NC(=O)[C@H]([C@@H](C)O)NC(=O)[C@H](CC(=O)O)NC(=O)[C@H](Cc2ccc(O)cc2)NC(=O)[C@@H]2CSSC[C@@H](C(=O)N[C@@H](CCSC)C(=O)O)NC(=O)[C@H](C)NC(=O)[C@@H]3CSSC[C@H](NC(=O)[C@H](CC(=O)O)NC(=O)[C@H](CCC(=O)O)NC(=O)[C@H](Cc4c[nH]cn4)NC(=O)[C@H]([C@@H](C)O)NC(=O)[C@H](C(C)C)NC(=O)[C@@H](NC(=O)[C@H](C)N)CSSC[C@H](NC(=O)[C@H]([C@@H](C)O)NC(=O)CNC1=O)C(=O)N[C@@H](C(C)C)C(=O)N[C@@H](CC(=O)O)C(=O)NCC(=O)N[C@@H](CCCCN)C(=O)N3)C(=O)N[C@@H]([C@@H](C)O)C(=O)N[C@@H](CC(C)C)C(=O)N[C@@H](CC(C)C)C(=O)N2 [ImKTX104-K25A] (H-ACVTHEDCTLLCYDTIGTCVDGKCACM-OH; disulfide 2-19, 8-24, 12-26)				21.4%	
CC[C@H](C)[C@@H]1NC(=O)[C@H]([C@@H](C)O)NC(=O)[C@H](CC(=O)O)NC(=O)[C@H](Cc2ccc(O)cc2)NC(=O)[C@@H]2CSSC[C@@H](C(=O)N[C@@H](CCSC)C(=O)O)NC(=O)[C@H](CCCCN)NC(=O)[C@@H]3CSSC[C@H](NC(=O)[C@H](CC(=O)O)NC(=O)[C@H](CCC(=O)O)NC(=O)[C@H](Cc4c[nH]cn4)NC(=O)[C@H]([C@@H](C)O)NC(=O)[C@H](C(C)C)NC(=O)[C@@H](NC(=O)[C@H](C)N)CSSC[C@H](NC(=O)[C@H]([C@@H](C)O)NC(=O)CNC1=O)C(=O)N[C@@H](C(C)C)C(=O)N[C@@H](CC(=O)O)C(=O)NCC(=O)N[C@@H](C)C(=O)N3)C(=O)N[C@@H]([C@@H](C)O)C(=O)N[C@@H](CC(C)C)C(=O)N[C@@H](CC(C)C)C(=O)N2 [ImKTX104-K23A] (H-ACVTHEDCTLLCYDTIGTCVDGACKCM-OH; disulfide 2-19, 8-24, 12-26)				15.5%	
CSCC[C@@H]1NC(=O)[C@@H]2CCCN2C(=O)[C@@H]2CSSC[C@@H]3NC(=O)[C@H](C(C)C)NC(=O)CNC(=O)[C@H](CC(=O)O)NC(=O)[C@H](CC(=O)O)NC(=O)[C@H](CSSC[C@H](NC(=O)CNC(=O)[C@@H](N)C(C)C)C(=O)N[C@@H](CCC(=O)O)C(=O)N[C@@H](CCC(=O)O)C(=O)N2)NC(=O)[C@H]([C@@H](C)O)NC(=O)[C@@H]2CCCN2C(=O)[C@H](CCCCN)NC(=O)[C@H](C)NC(=O)[C@H](CC(N)=O)NC(=O)[C@H](CCCCN)NC(=O)CNC(=O)[C@H](CCCCN)NC(=O)[C@H](CSSC[C@@H](C(=O)N[C@@H](CC(N)=O)C(=O)N[C@H](C(=O)O)C(C)C)NC(=O)[C@H](CC(N)=O)NC3=O)NC(=O)[C@H](Cc2c[nH]cn2)NC1=O [BmP02, reference compound] (H-VGCEECPMHCKGKNAKPTCDDGVCNCNV-OH; disulfide 3-19, 6-24, 10-26)	23.3%		only weak inhibitors		
CC[C@H](C)[C@@H]1NC(=O)[C@H](C(C)C)NC(=O)[C@@H]2CSSC[C@@H]3NC(=O)[C@H](CCCCN)NC(=O)[C@H](CCC(N)=O)NC(=O)[C@@H]4CCCN4C(=O)CNC(=O)[C@H](CC(=O)O)NC(=O)[C@H](CSSC[C@H](NC(=O)[C@H](CO)NC(=O)[C@H](CCC(=O)O)NC(=O)[C@H](CCCCN)NC(=O)[C@@H]4CCCN4C(=O)[C@H](CCC(=O)O)NC(=O)[C@H](CCC(=O)O)NC(=O)[C@@H](N)CC(=O)O)C(=O)N[C@@H](CO)C(=O)N[C@@H](CC(=O)O)C(=O)N[C@@H](CCC(=O)O)C(=O)N[C@@H](CCSC)C(=O)N2)NC(=O)[C@H](C(C)C)NC(=O)CNC(=O)[C@H]([C@@H](C)O)NC(=O)[C@H](CO)NC(=O)[C@H](Cc2ccc(O)cc2)NC(=O)[C@H](CCC(=O)O)NC(=O)[C@H](CCC(=O)O)NC(=O)CNC(=O)[C@H](CCCCN)NC(=O)[C@H](CSSC[C@@H](C(=O)N[C@@H](CO)C(=O)N[C@@H](CC(=O)O)C(=O)O)NC(=O)[C@H](CCCCN)NC3=O)NC(=O)[C@H](Cc2ccc(O)cc2)NC1=O [PbTx1, reference compound] (H-DEEPKESCSDEMCVIYCKGEEYSTGVCDGPQKCKCSD-OH; disulfide 8-27, 13-33, 17-35)	21.4%				Effect on KCNQ1 channel (in words) (KCNQ1 channel [2]): only weak inhibitors; Block of Kv1.x channel (in words) (Kv1.x channel): low activity (micromolar range)
CC[C@H](C)[C@@H]1NC(=O)[C@@H](NC(=O)[C@H](C)NC(=O)[C@H](CC(N)=O)NC(=O)CN)CSSC[C@@H](C(=O)N[C@@H](CC(=O)O)C(=O)N[C@@H](CCCCN)C(=O)O)NC(=O)[C@H](C)NC(=O)[C@H](CCCCN)NC(=O)[C@H](CC(=O)O)NC(=O)[C@@H]2CSSC[C@H](NC(=O)[C@H](C(C)C)NC(=O)[C@H](CCC(=O)O)NC1=O)C(=O)N[C@@H](CC(C)C)C(=O)N[C@@H](CCC(N)=O)C(=O)N[C@@H](Cc1c[nH]cn1)C(=O)N[C@@H]([C@@H](C)O)C(=O)NCC(=O)N[C@@H](CC(N)=O)C(=O)N1CCC[C@H]1C(=O)N[C@@H](C)C(=O)N[C@@H](CCC(=O)O)C(=O)N2 [HeTx203] (H-GNACIEVCLQHTGNPAECDKACDK-OH; disulfide 4-22, 8-18)	17.8%		only weakly inhibited		
CC[C@H](C)[C@@H]1NC(=O)[C@H](C)NC(=O)[C@H](CCC(=O)O)NC(=O)[C@H](CO)NC(=O)[C@H]([C@@H](C)CC)NC(=O)[C@@H]2CCCN2C(=O)[C@@H](NC(=O)[C@H](CC(=O)O)NC(=O)CNC(=O)[C@@H](N)CCC(=O)O)CSSC[C@@H]2NC(=O)[C@H](C(C)C)NC(=O)[C@H](CCC(=O)O)NC(=O)[C@H](C(C)C)NC(=O)[C@H](CCCCN)NC(=O)[C@H](CCC(=O)O)NC(=O)[C@H](CCCCN)NC(=O)[C@@H]3CSSC[C@@H](C(=O)N[C@@H](CO)C(=O)NCC(=O)O)NC(=O)[C@H](CCCCN)NC(=O)[C@H](CSSC[C@H](NC(=O)[C@H](CCCCN)NC1=O)C(=O)N[C@@H](C(C)C)C(=O)N[C@@H](CCC(=O)O)C(=O)N[C@@H](CCCCN)C(=O)N3)NC(=O)[C@H](C(C)C)NC(=O)CNC(=O)[C@@H]1CCCN1C(=O)[C@H](CCC(=O)O)NC2=O [LmKTx2] (H-EGDCPISEAIKCVEKCKEKVEVCEPGVCKCSG-OH; disulfide 4-23, 12-28, 16-30)	27.7%	minor effect	only weakly inhibited		
CC[C@H](C)[C@@H]1NC(=O)[C@H]([C@@H](C)O)NC(=O)[C@H](C)NC(=O)[C@H](Cc2ccc(O)cc2)NC(=O)[C@@H]2CSSC[C@@H](C(=O)N[C@@H](CCSC)C(=O)O)NC(=O)[C@H](CCCCN)NC(=O)[C@@H]3CSSC[C@H](NC(=O)[C@H](CC(=O)O)NC(=O)[C@H](CCC(=O)O)NC(=O)[C@H](Cc4c[nH]cn4)NC(=O)[C@H]([C@@H](C)O)NC(=O)[C@H](C(C)C)NC(=O)[C@@H](NC(=O)[C@H](C)N)CSSC[C@H](NC(=O)[C@H]([C@@H](C)O)NC(=O)CNC1=O)C(=O)N[C@@H](C(C)C)C(=O)N[C@@H](CC(=O)O)C(=O)NCC(=O)N[C@@H](CCCCN)C(=O)N3)C(=O)N[C@@H]([C@@H](C)O)C(=O)N[C@@H](CC(C)C)C(=O)N[C@@H](CC(C)C)C(=O)N2 [ImKTX104-D14A] (H-ACVTHEDCTLLCYATIGTCVDGKCKCM-OH; disulfide 2-19, 8-24, 12-26)				25.6%	
